Source: EP4711369A1, “1H-[1,2,3]TRIAZOLO[4,5-H]QUINAZOLINE COMPOUNDS AS PROTEIN KINASE INHIBITORS” (Chengdu Cynogen Bio-Pharmaceutical Technology Co., Ltd., priority 2023, dated 2024)

Legend:
[1] = biological target: CDK2/cyclin E (Homo sapiens, UniProt P24941); assay: Assay of kinase activity (ADP-Glo); assay type: biochemical; settings: kinase inhibitory activity, read-out: CDK2/E1 IC50
How it was run: (§1)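 Kinase preincubated 10 min with compound in 50 mM Hepes, 10 mM MgCl2, 0.01% Brij35, 2 mM DTT, then substrate/ATP added for 60 min at 25 °C. ADP formed measured by ADP-Glo luminescence; IC50 by nonlinear concentration-response fitting.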

[2] = biological target: CDK4/cyclin D1 (Homo sapiens, UniProt P11802); assay: Assay of kinase activity (ADP-Glo); assay type: biochemical; settings: kinase inhibitory activity
How it was run: as §1

[3] = biological target: CDK6/cyclin D3 (Homo sapiens, UniProt Q00534); assay: Assay of kinase activity (ADP-Glo); assay type: biochemical; settings: kinase inhibitory activity
How it was run: (§2)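 ADP production quantified by luminescence after 60 min kinase reaction at 25 °C, started with substrate/ATP following 10 min enzyme-compound preincubation. Buffer: 50 mM Hepes, 10 mM MgCl2, 0.01% Brij35, 2 mM DTT. IC50 obtained by nonlinear curve fitting of inhibition data.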

[4] = biological target: CDK9/cyclin T1 (Homo sapiens, UniProt P50750); assay: Assay of kinase activity (ADP-Glo); assay type: biochemical; settings: kinase inhibitory activity
How it was run: as §2

[5] = system: human acute myeloid leukemia MV-4-11 cells; assay: Assay of cell proliferation (CellTiter-Glo); assay type: cell-based; settings: MV4-11, 144 h, 6 days, read-out: MV-4-11 IC50 of cell proliferation inhibitory activity
How it was run: (§3)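 Cells seeded per line at growth-adapted densities, treated 6 days at 37 °C/5% CO2 with nine 3-fold dilutions (10 µM to 0.1 nM final, 0.5% DMSO). Viability by CellTiter-Glo luminescence; IC50 from four-parameter fit.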

[6] = system: human breast cancer HCC1806 cells; assay: Assay of cell proliferation (CellTiter-Glo); assay type: cell-based; settings: Homo sapiens, 144 h, 6 days, read-out: HCC1806 IC50 of cell proliferation inhibitory activity
How it was run: as §3

[7] = system: human breast cancer MCF-7 cells; assay: Assay of cell proliferation (CellTiter-Glo); assay type: cell-based; settings: 144 h, MCF7 cells, 6 days, read-out: MCF7 IC50 of cell proliferation inhibitory activity
How it was run: as §3

[8] = system: human colon cancer HCT-116 cells; assay: Assay of cell proliferation (CellTiter-Glo); assay type: cell-based; settings: 144 h, 6 days, read-out: HCT-116 IC50 of cell proliferation inhibitory activity
How it was run: as §3

[9] = system: human gastric cancer MKN1 cells; assay: Assay of cell proliferation (CellTiter-Glo); assay type: cell-based; settings: Homo sapiens, MKN-1, 144 h; MNK1, 6 days; read-out: MKN1 IC50 of cell proliferation inhibitory activity
How it was run: as §3

[10] = system: Human ovarian cancer OVCAR3 cells; assay: Assay of cell proliferation (CellTiter-Glo); assay type: cell-based; settings: Homo sapiens, OVCAR-3, 144 h, 6 days, read-out: OVCAR3 IC50 of cell proliferation inhibitory activity
How it was run: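 OVCAR3 cells, 2000/well in RPMI 1640 with 20% FBS, treated with nine 3-fold dilutions from 10 µM to 0.1 nM (0.5% DMSO) for 6 days at 37 °C. Viability by CellTiter-Glo luminescence; IC50 by four-parameter fit.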

Sequence of CDK6/cyclin D3 (Q00534 whole entry, species assumed): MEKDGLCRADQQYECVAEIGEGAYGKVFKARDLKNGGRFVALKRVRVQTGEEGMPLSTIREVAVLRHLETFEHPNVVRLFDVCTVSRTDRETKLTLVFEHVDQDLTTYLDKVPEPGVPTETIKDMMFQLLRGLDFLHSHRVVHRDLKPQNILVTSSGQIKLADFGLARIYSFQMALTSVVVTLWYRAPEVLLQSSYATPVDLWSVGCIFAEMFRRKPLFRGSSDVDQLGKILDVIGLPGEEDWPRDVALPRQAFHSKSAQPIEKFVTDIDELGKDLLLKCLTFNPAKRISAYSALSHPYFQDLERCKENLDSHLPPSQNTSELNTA
Sequence of CDK6/cyclin D3 (P30281 whole entry partner, species assumed): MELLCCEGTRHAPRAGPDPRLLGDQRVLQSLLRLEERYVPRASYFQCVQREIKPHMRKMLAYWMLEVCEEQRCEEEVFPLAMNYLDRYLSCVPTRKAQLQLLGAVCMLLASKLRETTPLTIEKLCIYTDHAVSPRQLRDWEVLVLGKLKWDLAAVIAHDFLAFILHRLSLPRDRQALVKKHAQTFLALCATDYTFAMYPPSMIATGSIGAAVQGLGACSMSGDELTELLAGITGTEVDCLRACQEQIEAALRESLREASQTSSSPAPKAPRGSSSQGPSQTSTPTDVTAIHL
Sequence of CDK4/cyclin D1 (P11802 whole entry, species assumed): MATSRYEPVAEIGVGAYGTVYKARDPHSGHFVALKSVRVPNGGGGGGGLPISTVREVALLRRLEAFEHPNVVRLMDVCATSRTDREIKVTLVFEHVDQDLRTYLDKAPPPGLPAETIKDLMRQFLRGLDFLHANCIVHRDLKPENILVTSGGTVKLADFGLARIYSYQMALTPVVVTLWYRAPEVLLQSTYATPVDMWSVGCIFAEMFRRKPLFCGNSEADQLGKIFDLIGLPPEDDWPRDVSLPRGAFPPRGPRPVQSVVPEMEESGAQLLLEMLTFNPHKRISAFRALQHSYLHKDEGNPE
Sequence of CDK4/cyclin D1 (P24385 whole entry partner, species assumed): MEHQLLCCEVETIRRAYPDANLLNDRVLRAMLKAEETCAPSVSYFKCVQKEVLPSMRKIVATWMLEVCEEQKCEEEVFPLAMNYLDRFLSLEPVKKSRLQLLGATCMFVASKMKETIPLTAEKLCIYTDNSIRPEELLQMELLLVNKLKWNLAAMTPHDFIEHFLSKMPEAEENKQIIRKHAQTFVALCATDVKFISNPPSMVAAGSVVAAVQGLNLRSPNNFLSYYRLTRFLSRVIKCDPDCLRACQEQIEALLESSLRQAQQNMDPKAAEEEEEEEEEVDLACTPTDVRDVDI
Sequence of CDK9/cyclin T1 (P50750 whole entry, species assumed): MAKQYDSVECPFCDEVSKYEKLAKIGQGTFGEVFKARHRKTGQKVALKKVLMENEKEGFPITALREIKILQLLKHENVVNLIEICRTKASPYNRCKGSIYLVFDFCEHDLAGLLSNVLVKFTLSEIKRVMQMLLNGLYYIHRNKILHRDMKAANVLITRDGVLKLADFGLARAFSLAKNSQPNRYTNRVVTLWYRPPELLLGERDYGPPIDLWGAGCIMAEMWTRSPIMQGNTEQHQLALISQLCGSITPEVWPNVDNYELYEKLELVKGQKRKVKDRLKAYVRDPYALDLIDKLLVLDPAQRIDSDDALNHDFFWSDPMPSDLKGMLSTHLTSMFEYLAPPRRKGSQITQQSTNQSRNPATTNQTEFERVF
Sequence of CDK9/cyclin T1 (O60563 whole entry partner, species assumed): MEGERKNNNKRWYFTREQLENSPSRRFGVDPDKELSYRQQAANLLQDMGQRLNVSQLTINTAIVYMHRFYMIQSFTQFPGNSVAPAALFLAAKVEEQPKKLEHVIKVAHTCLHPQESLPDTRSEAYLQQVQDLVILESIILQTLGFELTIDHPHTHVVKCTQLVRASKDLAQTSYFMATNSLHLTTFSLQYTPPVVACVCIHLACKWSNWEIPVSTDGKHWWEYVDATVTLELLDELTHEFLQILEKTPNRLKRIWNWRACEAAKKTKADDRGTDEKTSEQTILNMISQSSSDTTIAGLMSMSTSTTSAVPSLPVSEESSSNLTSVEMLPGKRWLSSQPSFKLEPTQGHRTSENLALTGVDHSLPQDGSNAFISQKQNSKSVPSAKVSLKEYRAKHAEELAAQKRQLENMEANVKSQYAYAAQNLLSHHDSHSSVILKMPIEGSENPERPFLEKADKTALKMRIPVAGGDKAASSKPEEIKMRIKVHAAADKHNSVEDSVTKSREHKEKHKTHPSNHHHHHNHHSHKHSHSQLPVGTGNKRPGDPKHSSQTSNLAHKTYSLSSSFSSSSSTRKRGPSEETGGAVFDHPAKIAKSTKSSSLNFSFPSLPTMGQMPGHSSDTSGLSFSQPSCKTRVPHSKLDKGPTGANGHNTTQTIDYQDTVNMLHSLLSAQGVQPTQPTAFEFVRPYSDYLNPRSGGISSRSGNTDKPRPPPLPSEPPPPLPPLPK

Structure (SMILES) | IC50 [1] [nM] | IC50 [2] [nM] | IC50 [3] [nM] | IC50 [4] [nM] | IC50 [5] [nM] | IC50 [6] [nM] | IC50 [7] [nM] | IC50 [8] [nM] | IC50 [9] [nM] | IC50 [10] [nM]
CC(C)n1nnc2ccc3cnc(Nc4ccc(C(=O)N5CCC(F)(F)CC5)cc4)nc3c21 [Example I-37, (4,4-Difluoropiperidin-1-yl)(4-((1-isopropyl-1H-[1,2,3]triazolo[4,5-H]quinazolin-8-yl)amino)phenyl)metha none] | 0.8 | 3 | 11 | 10 | 20 | 832 | 239 | 136 | 58 | 372
CC(C)n1nnc2ccc3cnc(Nc4ccc(C(=O)N5CCC(O)CC5)cc4)nc3c21 [Example I-36, (4-Hydroxypiperidin-1-yl)(4-((1-isopropyl-1H-[1,2,3]triazolo[4,5-H]quinazolin-8-yl)amino)phenyl)metha none] | 0.8 | 4 | 16 | 11 | 15 | 403 | 167 | 80 | 28 | 140
